Source: PubChem BioAssay (NCI)
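Dose response: 5 concentrations. Exposure: 48 h. Format: 96-well plates. Endpoint: linear interpolation; highest concentration if not reached. TGI is the concentration that stops growth completely.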

What was measured:
Experiment in all cases: NCI-60 cell line screen, 48 h
UO-31 renal = system: UO-31 renal
HCT-15 colon = system: HCT-15 colon
MOLT-4 leukemia = system: MOLT-4 leukemia
XF 498 CNS = system: XF 498 CNS
SNB-19 CNS = system: SNB-19 CNS
CCRF-CEM leukemia = system: CCRF-CEM leukemia
SK-MEL-5 melanoma = system: SK-MEL-5 melanoma
RPMI-8226 leukemia = system: RPMI-8226 leukemia
IGROV1 ovarian = system: IGROV1 ovarian
SF-295 CNS = system: SF-295 CNS
LOX IMVI melanoma = system: LOX IMVI melanoma
OVCAR-4 ovarian = system: OVCAR-4 ovarian
SK-MEL-28 melanoma = system: SK-MEL-28 melanoma
NCI-H460 lung = system: NCI-H460 lung
SW-620 colon = system: SW-620 colon
DMS 114 small cell lung = system: DMS 114 small cell lung
EKVX NSCLC = system: EKVX NSCLC
SK-MEL-2 melanoma = system: SK-MEL-2 melanoma
HT29 colon = system: HT29 colon
K-562 leukemia = system: K-562 leukemia
HOP-92 NSCLC = system: HOP-92 NSCLC
CAKI-1 renal = system: CAKI-1 renal
786-0 renal = system: 786-0 renal
HCC-2998 colon = system: HCC-2998 colon
SN12C renal = system: SN12C renal
ACHN renal = system: ACHN renal
A549 NSCLC = system: A549 NSCLC
HOP-62 NSCLC = system: HOP-62 NSCLC
LXFL 529 NSCLC = system: LXFL 529 NSCLC
UACC-62 melanoma = system: UACC-62 melanoma
KM12 colon = system: KM12 colon
DLD-1 colon = system: DLD-1 colon
TK-10 renal = system: TK-10 renal
SF-268 CNS = system: SF-268 CNS
SF-539 CNS = system: SF-539 CNS
NCI-H522 lung = system: NCI-H522 lung
M14 melanoma = system: M14 melanoma
NCI-H23 lung = system: NCI-H23 lung
KM20L2 colon = system: KM20L2 colon
MALME-3M melanoma = system: MALME-3M melanoma
SK-OV-3 ovarian = system: SK-OV-3 ovarian
HL-60(TB) leukemia = system: HL-60(TB) leukemia
OVCAR-8 ovarian = system: OVCAR-8 ovarian
RXF 393 renal = system: RXF 393 renal
SNB-78 CNS = system: SNB-78 CNS
UACC-257 melanoma = system: UACC-257 melanoma
HCT-116 colon = system: HCT-116 colon
A498 renal = system: A498 renal
OVCAR-5 ovarian = system: OVCAR-5 ovarian
U251 CNS = system: U251 CNS
COLO 205 colon = system: COLO 205 colon
OVCAR-3 ovarian = system: OVCAR-3 ovarian
M19-MEL melanoma = system: M19-MEL melanoma
NCI-H226 lung = system: NCI-H226 lung
DMS 273 small cell lung = system: DMS 273 small cell lung
SNB-75 CNS = system: SNB-75 CNS
SR leukemia = system: SR leukemia
DU-145 prostate = system: DU-145 prostate
HS 578T breast = system: HS 578T breast
MCF7 breast = system: MCF7 breast
T-47D breast = system: T-47D breast
MDA-MB-435 = system: MDA-MB-435
NCI/ADR-RES ovarian = system: NCI/ADR-RES ovarian
MDA-N = system: MDA-N
BT-549 breast = system: BT-549 breast
PC-3 prostate = system: PC-3 prostate
MDA-MB-231 breast = system: MDA-MB-231 breast
HOP-18 NSCLC = system: HOP-18 NSCLC

Measured: TGI

CC1=NN(C(=O)c2ccc(Cl)cc2)C(=O)/C1=C/c1ccccc1O
not listed: NCI-H226 lung | DMS 273 small cell lung | SNB-75 CNS | SR leukemia | DU-145 prostate | HS 578T breast | MCF7 breast | T-47D breast | MDA-MB-435 | NCI/ADR-RES ovarian | MDA-N | BT-549 breast | PC-3 prostate | MDA-MB-231 breast | HOP-18 NSCLC
> 100 µM: all other assays above

CC(C)OP(=O)(OC(C)C)/C(N)=N/Nc1ccc([N+](=O)[O-])cc1
not listed: IGROV1 ovarian | SF-295 CNS | HT29 colon | SK-OV-3 ovarian | RXF 393 renal | A498 renal | DU-145 prostate | HS 578T breast | MCF7 breast | T-47D breast | MDA-MB-435 | NCI/ADR-RES ovarian | MDA-N | BT-549 breast | PC-3 prostate | MDA-MB-231 breast | HOP-18 NSCLC
> 100 µM: all other assays above

O=C(Cc1ccc(Cl)c(Cl)c1)NCC1(N2CCCCC2)CCCCC1
36.7 µM: UACC-257 melanoma
53 µM: RXF 393 renal
34.4 µM: M14 melanoma
47.2 µM: MALME-3M melanoma
89.7 µM: T-47D breast
42 µM: UACC-62 melanoma
39.1 µM: HCC-2998 colon
not listed: XF 498 CNS | SK-MEL-5 melanoma | SK-MEL-28 melanoma | DMS 114 small cell lung | LXFL 529 NSCLC | DLD-1 colon | SF-539 CNS | KM20L2 colon | SNB-78 CNS | COLO 205 colon | M19-MEL melanoma | NCI-H226 lung | DMS 273 small cell lung | SNB-75 CNS | HOP-18 NSCLC
> 100 µM: all other assays above

COC(=O)c1c2c(cc3c1CC1(Cc4cc5c(c(C(C)=O)c4C1)CCC5)C3)CCC2 (configuration not stated)
74.2 µM: SNB-75 CNS
95.7 µM: RXF 393 renal
99.3 µM: SF-295 CNS
86.4 µM: HL-60(TB) leukemia
not listed: HCT-15 colon | RPMI-8226 leukemia | EKVX NSCLC | SK-MEL-2 melanoma | KM20L2 colon | SK-OV-3 ovarian | A498 renal | NCI-H226 lung | DU-145 prostate | HS 578T breast | MCF7 breast | T-47D breast | MDA-MB-435 | NCI/ADR-RES ovarian | MDA-N | BT-549 breast | PC-3 prostate | MDA-MB-231 breast
> 100 µM: all other assays above
